Assay results reported in patent US9993494B2, “Compositions and methods for treating fibrotic disease” (eFFECTOR Therapeutics, Inc., priority 2014, dated 2018).

Test system: normal human lung fibroblasts
Test: Ribosomal profiling: translational efficiency in TGFβ-treated fibroblasts
Assay type: cell-based
Conditions: TGFβ-treated fibroblasts
Method: Ribosomal profiling allows for measurement of changes in transcription and translation on a genome-wide basis accompanying TGFβ-dependent transformation of fibroblasts to myofibroblasts. Ribosomal profiles of the TGFβ-treated fibroblasts from Example 1 (about 6×10^6 cells/10 cm plate) were prepared and analyzed for changes in translational efficiencies with respect to potential disease-associated cellular changes accompanying this TGFβ-induced transformation.
Briefly, cells were washed with cold PBS supplemented with cycloheximide and lysed with 1× mammalian cell lysis buffer for 10 minutes on ice. Lysates were clarified by centrifugation for 10 minutes at 14,000 rpm and supernatants were collected. Cell lysates were processed to generate ribosomal protected fragments and total mRNA according to the instructions included with the ARTseq Ribosome Profiling Kit (Illumina, San Diego, Calif.). Sequencing of total RNA (RNA) and of ribosome-protected fragments of RNA (RPF) was carried out using RNA-Seq methodology according to the manufacturer's instructions (Illumina). To analyze the ribosomal profiles, RNA-Seq reads were processed with tools from the FASTX-Toolkit (fastq_quality_trimmer, fastx_clipper and fastx_trimmer). Unprocessed and processed reads were evaluated for a variety of quality measures using FastQC, and processed reads were mapped to the human genome using TopHat (see, e.g., Trapnell et al., Bioinformatics 25:1105, 2009). Gene-by-gene assessment of the number of fragments strictly and uniquely mapping to the coding region of each gene was conducted using HTSeq-count, a component of the HTSeq package. […] Genes with low counts in either RPF or RNA were excluded from differential analyses. Pathway and network analyses of differential data were conducted using Ingenuity Pathway Analysis (IPA).

Cc1cc(C2CCCCC2)n(O)c(=O)c1.NCCO [CPX, ciclopirox oloamine]
renormalizing the translational profile of RPL9 (ENSG00000163682): − (− = <0.9)
renormalizing the translational profile of RHOBTB3 (ENSG00000164292): − (− = <0.9)
renormalizing the translational profile of RPL36AL (ENSG00000165502): − (− = <0.9)
renormalizing the translational profile of RPL27A (ENSG00000166441): − (− = <0.9)
renormalizing the translational profile of RP11-382A20.3.1 (ENSG00000166503): − (− = <0.9)
renormalizing the translational profile of ANKDD1A (ENSG00000166839): − (− = <0.9)
renormalizing the translational profile of RPL13 (ENSG00000167526): − (− = <0.9)
renormalizing the translational profile of EEF2 (ENSG00000167658): − (− = <0.9)
renormalizing the translational profile of CA5B (ENSG00000169239): − (− = <0.9)
renormalizing the translational profile of KIAA1024 (ENSG00000169330): − (− = <0.9)
renormalizing the translational profile of MURC (ENSG00000170681): − (− = <0.9)
renormalizing the translational profile of HTRA3 (ENSG00000170801): − (− = <0.9)
renormalizing the translational profile of PDE7B (ENSG00000171408): − (− = <0.9)
renormalizing the translational profile of LPAR3 (ENSG00000171517): − (− = <0.9)
renormalizing the translational profile of CTPS (ENSG00000171793): − (− = <0.9)
renormalizing the translational profile of QARS (ENSG00000172053): − (− = <0.9)
renormalizing the translational profile of RPL38 (ENSG00000172809): − (− = <0.9)
renormalizing the translational profile of MRPL45 (ENSG00000174100): − (− = <0.9)
renormalizing the translational profile of RPL4 (ENSG00000174444): − (− = <0.9)
renormalizing the translational profile of RPL15 (ENSG00000174748): − (− = <0.9)
renormalizing the translational profile of DES (ENSG00000175084): − (− = <0.9)
renormalizing the translational profile of EIF3F (ENSG00000175390): − (− = <0.9)
renormalizing the translational profile of CLCF1 (ENSG00000175505): − (− = <0.9)
renormalizing the translational profile of AMIGO3 (ENSG00000176020): − (− = <0.9)
renormalizing the translational profile of C14orf49 (ENSG00000176438): − (− = <0.9)
renormalizing the translational profile of RPLP2 (ENSG00000177600): − (− = <0.9)
renormalizing the translational profile of IMPDH2 (ENSG00000178035): − (− = <0.9)
renormalizing the translational profile of DNAJC22 (ENSG00000178401): − (− = <0.9)
renormalizing the translational profile of RPL35A (ENSG00000182899): − (− = <0.9)
renormalizing the translational profile of LENG9 (ENSG00000182909): − (− = <0.9)
renormalizing the translational profile of C22orf32 (ENSG00000183172): − (− = <0.9)
renormalizing the translational profile of PDE4B (ENSG00000184588): − (− = <0.9)
renormalizing the translational profile of ROBO2 (ENSG00000185008): + (+ = 0.9 to 1.5)
renormalizing the translational profile of PTCH1 (ENSG00000185920): − (− = <0.9)
renormalizing the translational profile of POLR1D (ENSG00000186184): − (− = <0.9)
renormalizing the translational profile of DYNC2H1 (ENSG00000187240): − (− = <0.9)
renormalizing the translational profile of RPL14 (ENSG00000188846): − (− = <0.9)
renormalizing the translational profile of LRRK2 (ENSG00000188906): − (− = <0.9)
renormalizing the translational profile of NACA (ENSG00000196531): − (− = <0.9)
renormalizing the translational profile of LAMB3 (ENSG00000196878): + (+ = 0.9 to 1.5)
renormalizing the translational profile of PCBP2 (ENSG00000197111): − (− = <0.9)
renormalizing the translational profile of MAP3K5 (ENSG00000197442): − (− = <0.9)
renormalizing the translational profile of RPL37A (ENSG00000197756): − (− = <0.9)
renormalizing the translational profile of RPL12 (ENSG00000197958): − (− = <0.9)
renormalizing the translational profile of LPAR1 (ENSG00000198121): − (− = <0.9)
renormalizing the translational profile of RPL23A (ENSG00000198242): − (− = <0.9)
renormalizing the translational profile of PLN (ENSG00000198523): − (− = <0.9)
renormalizing the translational profile of RPL10A (ENSG00000198755): − (− = <0.9)
renormalizing the translational profile of CES1 (ENSG00000198848): + (+ = 0.9 to 1.5)
renormalizing the translational profile of RPL39 (ENSG00000198918): − (− = <0.9)
renormalizing the translational profile of CARD16 (ENSG00000204397): − (− = <0.9)
renormalizing the translational profile of MICA (ENSG00000204520): − (− = <0.9)
renormalizing the translational profile of GNB2L1 (ENSG00000204628): − (− = <0.9)
renormalizing the translational profile of RPL17 (ENSG00000215472): − (− = <0.9)
renormalizing the translational profile of RPL41 (ENSG00000229117): − (− = <0.9)
renormalizing the translational profile of ARPC1A (ENSG00000241685): − (− = <0.9)
renormalizing the translational profile of CHCHD10 (ENSG00000250479): − (− = <0.9)
renormalizing the translational profile of EEF1G (ENSG00000254772): − (− = <0.9)
number of genes whose translational efficiency was uniquely modulated by the compound (duplicate ribosomal profiles): six
effect in renormalizing the translational profile of the gene (gene RPS2 (ENSG00000140988)): − (− = <0.9)
effect in renormalizing the translational profile of the gene (gene RPS3 (ENSG00000149273)): − (− = <0.9)
effect in renormalizing the translational profile of the gene (gene RPS3A (ENSG00000145425)): − (− = <0.9)
effect in renormalizing the translational profile of the gene (gene RPS4X (ENSG00000198034)): − (− = <0.9)
effect in renormalizing the translational profile of the gene (gene RPS4Y1 (ENSG00000129824)): − (− = <0.9)
effect in renormalizing the translational profile of the gene (gene RPS5 (ENSG00000083845)): − (− = <0.9)
